In the SangsterLogP compilation one finds logP data, which are given here for 19 molecules.

Each structure is given as a SMILES string.

For orientation: logP means the decadic logarithm of the partition coefficient of the neutral form, usually between octanol and water.

The series in a line: method code SF, from DOI: 10.1007/978-3-0348-5795-6_10, PMID: 954948.
Consider `S=C=Nc1ccc(/N=N/c2ccccc2)cc1`, for which the lipophilicity (logP) amounted to 5.55.

In the case of `S=C=Nc1ccc(-c2ccccc2)cc1`, the log partition coefficient (logP) was found to be 4.66.

The molecule `S=C=Nc1ccc2ccccc2c1` returned a log partition coefficient (logP) of 4.34.

For `S=C=Nc1cccc2ccccc12`, the logP amounted to 4.34.

Turning to `S=C=NC(c1ccccc1)c1ccccc1`, the logP was found to be 5.09.

Turning to `S=C=NCc1ccccc1`, the logP was determined as 3.16.

For the molecule `S=C=Nc1ccc(Cc2ccccc2)cc1`, the logP was 4.4.

In turn, `S=C=Nc1ccc(Nc2ccccc2)cc1` showed a lipophilicity (logP) of 4.94.

`CCN=C=S` yielded a logP of 1.47.

Molecule `S=C=Nc1ccc2cc3ccccc3cc2c1` came in with a log partition coefficient (logP) of 5.7.

`O=S(c1ccccc1)c1ccc(N=C=S)cc1` (centres undefined) gave a lipophilicity (logP) of 4.4.

The molecule `O=C(c1ccccc1)c1ccc(N=C=S)cc1` registered a logP of 4.88.

The molecule `Oc1ccc(N=C=S)cc1` came in with a logP of 2.74.

The molecule `S=C=NCc1cccc2ccccc12` came in with a logP of 4.42.

For `O=C(Oc1ccc(N=C=S)cc1)c1ccccc1`, the logP came to 4.9.

In turn, `S=C=Nc1ccc(Oc2ccccc2)cc1` returned a logP of 4.75.

`S=C=NCCc1ccccc1` displayed a logP of 3.47.

Molecule `S=C=NC(c1ccccc1)(c1ccccc1)c1ccccc1` came in with a logP of 7.02.

In turn, `CC(N=C=S)c1ccccc1` (centres undefined) displayed a logP of 3.46.
